# Experimental data reported in US5554357A, “Magnetic resonance imaging agents containing hydrazide moieties” (Mallinckrodt Medical, Inc., priority 1994, dated 1996).
# Experiments:
# [1] = T1 relaxivity by spin-echo NMR; assay type: physicochemical; details: 90 MHz, H2O/D2O (4:1), six concentrations from 20 mM down; least-square fit of 1/T1 versus concentration, correlation coefficient 0.9994
# Protocol: T1 relaxation times were measured using spin-echo sequence on the JEOL FX90Q (90 MHz) FT-NMR spectrometer/ Twenty millimolar solution of the complex in Example 1 was prepared in H2 O/D2 O (4:1) mixture and was serially diluted to lower concentrations ([…]) with H2 O/D2 O (4:1) mixture. T1 measurements were made at each of these 6 concentrations. The relaxivity (R1) was determined by applying least-square fit to the plot of 1/T1 versus concentration. The relaxivity of the complex in Example 1 was 4.85+0.06 mM^-1 sec^-1. The correlation coefficient for the least squares analysis was 0.9994.
# ICR mice = assay: acute intravenous toxicity; assay type: in vivo, mouse (ICR); details: single intravenous injection via lateral tail vein, males and females, 7 days observation, 95% Confidence Limits 6.8-19.6 mmol/kg
# Protocol: The acute intravenous toxicity of the compound of Example 1 was determined as follows: ICR mice, at 1 to 4 per dose level, received single intravenous injections of the test substance via a lateral tail vein at the rate of approximately 1 ml/minute. The test substances were at concentrations chosen to result in dose volumes of 5 to 75 ml/kg body weight. Dosing began at a volume of 10 ml/kg. Dose adjustments up or down were made to closely bracket the estimated LD50 with 4 animals per group (2 males and 2 females). Observations of the mice were recorded at times 0, 0.5, 1, 2, 4 and 24 hours and once daily thereafter for up to 7 days post injection. On the 7th day post injection, the mice were euthanized, weighed and necropsied. Abnormal tissues were noted. At this time a decision was made as to whether any histopathology was to be performed and whether or not the tissues should be retained. Necropsies were also performed on mice expiring after 24 hours post-injection, except for dead mice found on the weekends. The LD50 values, along with 95% CI were calculated using a modified Behrens-Reed-Meunch method.
compound,measurement,setting,value
CN(C)NC(=O)CN(CCN(CCN(CC(=O)[O-])CC(=O)NN(C)C)CC(=O)[O-])CC(=O)[O-].O.[Gd+3] [Example 1],relaxivity (R1),[1],4.85 ± 0.06 mM⁻¹ s⁻¹
same,LD50,ICR mice,11.5 mmol/kg
